Experimental data from the NIST ThermoML archive (doi:10.1016/j.jct.2009.05.009).
± gives the expanded uncertainty stated by the source.

Experiment: xn = mol fraction of the nth substance listed
Conditions: 101.3 kPa, Liquid, Vibrating tube method

CCCC[N+](C)(C)C.O=S(=O)([N-]S(=O)(=O)C(F)(F)F)C(F)(F)F [butyltrimethylammonium bis(trifluoromethylsulfonyl)imide] + O
mass density [kg/m3]
Conditions | x2 = 0 | x2 = 0.0387 | x2 = 0.0765 | x2 = 0.1132 | x2 = 0.14 | x2 = 0.189 | x2 = 0.2108 | x2 = 0.2322
293.15 K | 1399.5 ± 2.6 | 1398.4 ± 2.5 | 1397 ± 2.5 | 1395.3 ± 2.4 | 1394.1 ± 2.4 | 1392.4 ± 2.3 | 1391.8 ± 2.3 | 1391.2 ± 2.3
298.15 K | 1395 ± 2.6 | 1393.9 ± 2.5 | 1392.5 ± 2.5 | 1390.8 ± 2.4 | 1389.5 ± 2.4 | 1387.8 ± 2.3 | 1387.2 ± 2.3 | 1386.6 ± 2.3
303.15 K | 1390.5 ± 2.6 | 1389.4 ± 2.5 | 1388 ± 2.5 | 1386.3 ± 2.4 | 1385 ± 2.4 | 1383.2 ± 2.3 | 1382.5 ± 2.3 | 1381.8 ± 2.3
308.15 K | 1386.1 ± 2.5 | 1384.9 ± 2.5 | 1383.5 ± 2.5 | 1381.9 ± 2.4 | 1380.6 ± 2.4 | 1378.7 ± 2.3 | 1377.8 ± 2.3 | 1377.1 ± 2.3
313.15 K | 1381.6 ± 2.5 | 1380.5 ± 2.5 | 1379 ± 2.5 | 1377.4 ± 2.4 | 1376.1 ± 2.4 | 1374.1 ± 2.3 | 1373.2 ± 2.3 | 1372.4 ± 2.3
318.15 K | 1377.1 ± 2.5 | 1376 ± 2.5 | 1374.6 ± 2.5 | 1372.9 ± 2.4 | 1371.6 ± 2.4 | 1369.6 ± 2.3 | 1368.7 ± 2.3 | 1367.8 ± 2.3
323.15 K | 1372.6 ± 2.5 | 1371.5 ± 2.5 | 1370 ± 2.5 | 1368.4 ± 2.4 | 1367.1 ± 2.4 | 1365.1 ± 2.3 | 1364.1 ± 2.3 | 1363.2 ± 2.3
328.15 K | 1368.2 ± 2.5 | 1367 ± 2.5 | 1365.5 ± 2.4 | 1363.9 ± 2.4 | 1362.6 ± 2.4 | 1360.5 ± 2.3 | 1359.5 ± 2.3 | 1358.5 ± 2.3
333.15 K | 1363.7 ± 2.5 | 1362.4 ± 2.5 | 1360.9 ± 2.4 | 1359.3 ± 2.4 | 1358 ± 2.4 | 1355.8 ± 2.3 | 1354.8 ± 2.3 | 1353.7 ± 2.3
338.15 K | 1359.2 ± 2.5 | 1357.9 ± 2.5 | 1356.3 ± 2.4 | 1354.7 ± 2.4 | 1353.3 ± 2.4 | 1351.1 ± 2.3 | 1350 ± 2.3 | 1348.7 ± 2.3
343.15 K | 1354.8 ± 2.5 | 1353.4 ± 2.5 | 1351.8 ± 2.4 | 1350.2 ± 2.4 | 1348.7 ± 2.4 | 1346.4 ± 2.3 | 1345.1 ± 2.3 | 1343.8 ± 2.3

O [water] + CCOS(=O)(=O)[O-].CCn1cc[n+](C)c1
x1 = 1
Conditions | mass density [kg/m3]
318.15 K | 990.1 ± 2
323.15 K | 988 ± 2
328.15 K | 985.7 ± 2
333.15 K | 983.2 ± 2
338.15 K | 980.5 ± 2
343.15 K | 977.8 ± 2
